Results as given in patent US9663525B2, “Pyrazolopyrimidinyl inhibitors of ubiquitin-activating enzyme” (Millennium Pharmaceuticals, Inc., priority 2012, dated 2017).

Biological target: recombinant human UAE (Homo sapiens (Human), UniProt P22314)
Experiment: Ubiquitin Activating Enzyme (UAE) HTRF assay, human UAE
Description: After incubation for 120 minutes, quantification of the FRET is performed on the Pherostar (BMG).
For compounds whose values are marked with an asterisk (*), mouse UAE was used. For all other compounds, human UAE was used.

Chain of recombinant human UAE (P22314 whole entry): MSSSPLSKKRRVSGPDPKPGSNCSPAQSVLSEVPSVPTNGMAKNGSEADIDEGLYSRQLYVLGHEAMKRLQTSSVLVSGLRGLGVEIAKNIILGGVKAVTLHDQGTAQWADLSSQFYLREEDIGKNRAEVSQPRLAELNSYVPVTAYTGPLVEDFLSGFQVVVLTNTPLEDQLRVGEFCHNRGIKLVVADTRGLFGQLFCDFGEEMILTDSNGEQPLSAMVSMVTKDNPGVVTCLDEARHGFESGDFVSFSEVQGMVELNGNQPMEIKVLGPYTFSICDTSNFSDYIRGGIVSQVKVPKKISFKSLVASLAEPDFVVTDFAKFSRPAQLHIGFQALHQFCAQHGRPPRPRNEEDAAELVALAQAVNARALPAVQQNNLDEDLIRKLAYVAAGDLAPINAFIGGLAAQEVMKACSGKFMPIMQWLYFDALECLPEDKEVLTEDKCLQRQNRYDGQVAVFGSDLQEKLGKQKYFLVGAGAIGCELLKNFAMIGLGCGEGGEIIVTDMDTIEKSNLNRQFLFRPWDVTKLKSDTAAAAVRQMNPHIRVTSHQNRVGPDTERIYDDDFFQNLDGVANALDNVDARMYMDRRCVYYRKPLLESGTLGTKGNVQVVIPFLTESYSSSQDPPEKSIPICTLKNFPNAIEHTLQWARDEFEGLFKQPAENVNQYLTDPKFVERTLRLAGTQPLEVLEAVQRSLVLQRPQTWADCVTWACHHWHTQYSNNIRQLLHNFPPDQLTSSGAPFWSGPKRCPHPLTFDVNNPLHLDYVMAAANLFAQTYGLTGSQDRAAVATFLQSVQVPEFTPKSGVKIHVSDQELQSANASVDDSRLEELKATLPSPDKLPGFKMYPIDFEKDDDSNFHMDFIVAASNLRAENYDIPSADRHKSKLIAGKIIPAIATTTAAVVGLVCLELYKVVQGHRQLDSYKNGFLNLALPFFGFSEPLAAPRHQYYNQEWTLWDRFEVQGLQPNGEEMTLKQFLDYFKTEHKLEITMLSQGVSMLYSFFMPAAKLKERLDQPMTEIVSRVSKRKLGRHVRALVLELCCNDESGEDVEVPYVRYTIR

Row | SMILES | IC50 [nM]
1 | NS(=O)(=O)OC[C@H]1C[C@@H](Nc2ccnc3cc(-c4cccc(-c5ccccc5)c4)nn23)[C@H](O)[C@@H]1O (racemic) [Compound I-003, (rac)((1R,2R,3S,4R)-4-(2-(biphenyl-3-yl)pyrazolo[1,5-a]pyrimidin-7-ylamino)-2,3-dihydroxycyclopentyl)methyl rel-sulfamate] | < 10
2 | NS(=O)(=O)OC[C@H]1C[C@@H](Nc2ccnc3cc(-c4cccc(C(F)(F)F)c4)nn23)[C@H](O)[C@@H]1O (racemic) [Compound I-007, (rac)-((1R,2R,3S,4R)-2,3-Dihydroxy-4-((2-(3-(trifluoromethyl)phenyl)pyrazolo[1,5-a]pyrimidin-7-yl)amino)cyclopentyl)methyl rel-sulfamate] | < 10
3 | NS(=O)(=O)OC[C@H]1C[C@@H](Nc2cc(Cl)nc3cc(-c4ccc(Br)cc4)nn23)[C@H](O)[C@@H]1O (racemic) [Compound I-008, (rac)-((1R,2R,3S,4R)-4-(2-(4-bromophenyl)-5-chloropyrazolo[1,5-a]pyrimidin-7-ylamino)-2,3-dihydroxycyclopentyl)methyl rel-sulfamate] | 100 to 1000
4 | NS(=O)(=O)OC[C@H]1C[C@@H](Nc2cc(Cl)nc3cc(-c4cccc5ccccc45)nn23)[C@H](O)[C@@H]1O (racemic) [Compound I-009, (rac)-((1R,2R,3S,4R)-4-{[5-chloro-2-(1-naphthyl)pyrazolo[1,5-a]pyrimidin-7-yl]amino}-2,3-dihydroxycyclopentyl)methyl rel-sulfamate] | 100 to 1000
5 | COc1ccc(-c2cc3nc(Cl)cc(N[C@@H]4C[C@H](COS(N)(=O)=O)[C@@H](O)[C@H]4O)n3n2)cc1 (racemic) [Compound I-014, (rac)-[(1R,2R,3S,4R)-4-{[5-chloro-2-(4-methoxyphenyl)pyrazolo[1,5-a]-pyrimidin-7-yl]amino}-2,3-dihydroxycyclopentyl]methyl rel-sulfamate] | 100 to 1000
6 | CC(C)(C)c1cccc(-c2cc3nccc(N[C@@H]4C[C@H](COS(N)(=O)=O)[C@@H](O)[C@H]4O)n3n2)c1 (racemic) [Compound I-015, (rac)-((1R,2R,3S,4R)-4-((2-(3-(tert-Butyl)phenyl)pyrazolo[1,5-a]pyrimidin-7-yl)amino)-2,3-dihydroxycyclopentyl)methyl rel-sulfamate] | < 10
7 | COc1ccc(Cl)cc1-c1cc2nccc(N[C@@H]3C[C@H](COS(N)(=O)=O)[C@@H](O)[C@H]3O)n2n1 (racemic) [Compound I-020, (rac)-((1R,2R,3S,4R)-4-(2-(5-chloro-2-methoxyphenyl)pyrazolo[1,5-a]pyrimidin-7-ylamino)-2,3-dihydroxycyclopentyl)methyl rel-sulfamate] | < 10
8 | CC1(C)COc2c(-c3cc4nccc(N[C@@H]5C[C@H](COS(N)(=O)=O)[C@@H](O)[C@H]5O)n4n3)cccc21 (racemic) [Compound I-023, (rac)-((1R,2R,3S,4R)-4-(2-(3,3-dimethyl-2,3-dihydrobenzofuran-7-yl)pyrazolo[1,5-a]pyrimidin-7-ylamino)-2,3-dihydroxycyclopentyl)methyl rel-sulfamate] | 10 to 100
9 | NS(=O)(=O)OC[C@H]1C[C@@H](Nc2ccnc3cc(-c4ccc(C(F)(F)F)c5cccnc45)nn23)[C@H](O)[C@@H]1O (racemic) [Compound I-033, (rac)-((1R,2R,3S,4R)-2,3-dihydroxy-4-(2-(5-(trifluoromethyl)quinolin-8-yl)pyrazolo[1,5-a]pyrimidin-7-ylamino)cyclopentyl)methyl rel-sulfamate] | < 10
10 | NS(=O)(=O)OC[C@H]1C[C@@H](Nc2ccnc3cc(-c4ccc5ncccc5c4)nn23)[C@H](O)[C@@H]1O (racemic) [Compound I-034, (rac)-((1R,2R,3S,4R)-2,3-dihydroxy-4-(2-(quinolin-6-yl)pyrazolo[1,5-a]pyrimidin-7-ylamino)cyclopentyl)methyl rel-sulfamate] | < 10
11 | C[Si](C)(C)c1cccc(-c2cc3nccc(N[C@@H]4C[C@H](COS(N)(=O)=O)[C@@H](O)[C@H]4O)n3n2)c1 (racemic) [Compound I-035, (rac)-((1R,2R,3S,4R)-2,3-dihydroxy-4-(2-(3-(trimethylsilyl)phenyl)pyrazolo[1,5-a]pyrimidin-7-ylamino)cyclopentyl)methyl rel-sulfamate] | < 10
12 | NS(=O)(=O)OC[C@H]1C[C@@H](Nc2ccnc3cc(-c4cccc(-c5ccccn5)c4)nn23)[C@H](O)[C@@H]1O (racemic) [Compound I-036, (rac)-((1R,2R,3S,4R)-2,3-Dihydroxy-4-((2-(3-(pyridin-2-yl)phenyl)pyrazolo[1,5-a]pyrimidin-7-yl)amino)cyclopentyl)methyl rel-sulfamate] | < 10

More lines, now with the values ahead:

Row | IC50 [nM] | SMILES
13 | < 10 | NS(=O)(=O)OC[C@H]1C[C@@H](Nc2ccnc3cc(-c4cccc5c4oc4ccccc45)nn23)[C@H](O)[C@@H]1O (racemic) [Compound I-010, (rac)-((1R,2R,3S,4R)-4-(2-(dibenzo[b,d]furan-4-yl)pyrazolo[1,5-a]pyrimidin-7-ylamino)-2,3-dihydroxycyclopentyl)methyl rel-sulfamate]
14 | 10 to 100 | NS(=O)(=O)OC[C@H]1C[C@@H](Nc2ccnc3cc(-c4ccc(Cl)cc4Cl)nn23)[C@H](O)[C@@H]1O (racemic) [Compound I-013, (rac)-[(1R,2R,3S,4R)-4-{[2-(2,4-dichlorophenyl)pyrazolo[1,5-a]pyrimidin-7-yl]amino}-2,3-dihydroxycylopentyl]methyl rel-sulfamate]
15 | < 10 | NS(=O)(=O)OC[C@H]1C[C@@H](Nc2ccnc3cc(-c4ccc5ccccc5c4)nn23)[C@H](O)[C@@H]1O (racemic) [Compound I-016, (rac)-((1R,2R,3S,4R)-2,3-dihydroxy-4-(2-(naphthalen-2-yl)pyrazolo[1,5-a]pyrimidin-7-ylamino)cyclopentyl)methyl rel-sulfamate]
16 | < 10 | NS(=O)(=O)OC[C@H]1C[C@@H](Nc2ccnc3cc(-c4cccc5cccnc45)nn23)[C@H](O)[C@@H]1O (racemic) [Compound I-017, (rac)-((1R,2R,3S,4R)-2,3-Dihydroxy-4-((2-(quinolin-8-yl)pyrazolo[1,5-a]pyrimidin-7-yl)amino)cyclopentyl)methyl rel-sulfamate]
17 | < 10 | NS(=O)(=O)OC[C@H]1C[C@@H](Nc2ccnc3cc(-c4cncc5ccccc45)nn23)[C@H](O)[C@@H]1O (racemic) [Compound I-018, (rac)-((1R,2R,3S,4R)-2,3-dihydroxy-4-(2-(isoquinolin-4-yl)pyrazolo[1,5-a]pyrimidin-7-ylamino)cyclopentyl)methyl rel-sulfamate]
18 | < 10 | NS(=O)(=O)OC[C@H]1C[C@@H](Nc2ccnc3cc(-c4ccc5oc6ccccc6c5c4)nn23)[C@H](O)[C@@H]1O (racemic) [Compound I-019, (rac)-((1R,2R,3S,4R)-4-(2-(dibenzo[b,d]furan-2-yl)pyrazolo[1,5-a]pyrimidin-7-ylamino)-2,3-dihydroxycyclopentyl)methyl rel-sulfamate]
19 | < 10 | Cc1ccc(Cl)cc1-c1cc2nccc(N[C@@H]3C[C@H](COS(N)(=O)=O)[C@@H](O)[C@H]3O)n2n1 (racemic) [Compound I-021, (rac)-((1R,2R,3S,4R)-4-(2-(5-chloro-2-methylphenyl)pyrazolo[1,5-a]pyrimidin-7-ylamino)-2,3-dihydroxycyclopentyl)methyl rel-sulfamate]
20 | < 10 | NS(=O)(=O)OC[C@H]1C[C@@H](Nc2ccnc3cc(-c4csc5ccccc45)nn23)[C@H](O)[C@@H]1O (racemic) [Compound I-022, (rac)-((1R,2R,3S,4R)-4-(2-(benzo[b]thiophen-3-yl)pyrazolo[1,5-a]pyrimidin-7-ylamino)-2,3-dihydroxycyclopentyl)methyl rel-sulfamate]
21 | < 10 | NS(=O)(=O)OC[C@H]1C[C@@H](Nc2ccnc3cc(-c4cc5ccccc5[nH]4)nn23)[C@H](O)[C@@H]1O (racemic) [Compound I-024, (rac)-((1R,2R,3S,4R)-4-(2-(1H-indol-2-yl)pyrazolo[1,5-a]pyrimidin-7-ylamino)-2,3-dihydroxycyclopentyl)methyl rel-sulfamate]
22 | 10 to 100 | NS(=O)(=O)OC[C@H]1C[C@@H](Nc2ccnc3cc(-c4cnc5ccccc5c4)nn23)[C@H](O)[C@@H]1O (racemic) [Compound I-025, (rac)-((1R,2R,3S,4R)-2,3-dihydroxy-4-(2-(quinolin-3-yl)pyrazolo[1,5-a]pyrimidin-7-ylamino)cyclopentyl)methyl rel-sulfamate]
23 | < 10 | NS(=O)(=O)OC[C@H]1C[C@@H](Nc2ccnc3cc(-c4cccc5cnccc45)nn23)[C@H](O)[C@@H]1O (racemic) [Compound I-027, (rac)-((1R,2R,3S,4R)-2,3-dihydroxy-4-(2-(isoquinolin-5-yl)pyrazolo[1,5-a]pyrimidin-7-ylamino)cyclopentyl)methyl rel-sulfamate]
24 | < 10 | NS(=O)(=O)OC[C@H]1C[C@@H](Nc2ccnc3cc(-c4cccc(Br)c4)nn23)[C@H](O)[C@@H]1O (racemic) [Compound I-028, (rac)-((1R,2R,3S,4R)-4-((2-(3-Bromophenyl)pyrazolo[1,5-a]pyrimidin-7-yl)amino)-2,3-dihydroxycyclopentyl)methyl rel-sulfamate]
25 | < 10 | NS(=O)(=O)OC[C@H]1C[C@@H](Nc2ccnc3cc(-c4c[nH]c5ccccc45)nn23)[C@H](O)[C@@H]1O (racemic) [Compound I-032, (rac)-[(1R,2R,3S,4R)-2,3-dihydroxy-4-{[2-(1H-indol-3-yl)pyrazolo[1,5-a]pyrimidin-7-yl]amino}cyclopentyl]methyl rel-sulfamate]
26 | < 10 | NS(=O)(=O)OC[C@H]1C[C@@H](Nc2ccnc3cc(-c4ccc5[nH]c6ccccc6c5c4)nn23)[C@H](O)[C@@H]1O (racemic) [Compound I-037, (rac)-[(1R,2R,3S,4R)-4-{[2-(9H-carbazol-3-yl)pyrazolo[1,5-a]pyrimidin-7-yl]amino}-2,3-dihydroxycyclopentyl]methyl rel-sulfamate]
27 | < 10 | Cc1sc(-c2ccccc2)nc1-c1cc2nccc(N[C@@H]3C[C@H](COS(N)(=O)=O)[C@@H](O)[C@H]3O)n2n1 (racemic) [Compound I-038, (rac)-[(1R,2R,3S,4R)-2,3-dihydroxy-4-{[2-(5-methyl-2-phenyl-1,3-thiazol-4-yl)pyrazolo[1,5-a]pyrimidin-7-yl]amino}cyclopentyl]methyl rel-sulfamate]
